ChEMBL document CHEMBL1150401, “Genotoxicity of alpha-asarone analogues” (Bioorg Med Chem, 2008)

Key:
[1] = test system: Salmonella typhimurium; assay: Mutagenic activity in Salmonella Typhimurium TA98 assessed as number of his+ revertants at 1000 ug/plate after 48 to 72 hrs by Ames test in presence of S9 fraction; type: toxicity, organism-based; settings: salmonella enterica subsp. enterica serovar typhimurium
[2] = test system: Salmonella typhimurium; assay: Cytotoxicity against Salmonella Typhimurium TA98 assessed as reduction in his+ revertants number at 500 ug/plate after 48 to 72 hrs in presence of S9 fraction; type: functional, Salmonella enterica subsp. enterica serovar Typhimurium; parameters: scale not given: the % may be the effect or the level left
[3] = test system: L929; assay: Genotoxicity against mouse L929 cells assessed as number of micronuclei at 100 ug/ml; type: toxicity, cell-based
[4] = test system: Salmonella typhimurium; assay: Mutagenic activity in Salmonella Typhimurium TA102 assessed as number of his+ revertants at 100 ug/plate after 48 to 72 hrs by Ames test in presence of S9 fraction; type: toxicity, organism-based; settings: salmonella enterica subsp. enterica serovar typhimurium
[5] = test system: Salmonella typhimurium; assay: Mutagenic activity in Salmonella Typhimurium TA102 assessed as number of his+ revertants at 500 ug/plate after 48 to 72 hrs by Ames test in presence of S9 fraction; type: toxicity, organism-based; settings: salmonella enterica subsp. enterica serovar typhimurium
[6] = test system: Salmonella typhimurium; assay: Mutagenic activity in Salmonella Typhimurium TA102 assessed as number of his+ revertants at 500 ug/plate after 48 to 72 hrs by Ames test in absence of S9 fraction; type: toxicity, organism-based; settings: salmonella enterica subsp. enterica serovar typhimurium
[7] = test system: Salmonella typhimurium; assay: Mutagenic activity in Salmonella Typhimurium TA97 assessed as number of his+ revertants at 500 ug/plate after 48 to 72 hrs by Ames test in presence of S9 fraction; type: toxicity, organism-based; settings: salmonella enterica subsp. enterica serovar typhimurium
[8] = test system: Salmonella typhimurium; assay: Mutagenic activity in Salmonella Typhimurium TA100 assessed as number of his+ revertants at 500 ug/plate after 48 to 72 hrs by Ames test in presence of S9 fraction; type: toxicity, organism-based; settings: salmonella enterica subsp. enterica serovar typhimurium
[9] = test system: Salmonella typhimurium; assay: Mutagenic activity in Salmonella Typhimurium TA100 assessed as number of his+ revertants at 1000 ug/plate after 48 to 72 hrs by Ames test in absence of S9 fraction; type: toxicity, organism-based; settings: salmonella enterica subsp. enterica serovar typhimurium
[10] = test system: Salmonella typhimurium; assay: Mutagenic activity in Salmonella Typhimurium TA102 assessed as number of his+ revertants at 1000 ug/plate after 48 to 72 hrs by Ames test in absence of S9 fraction; type: toxicity, organism-based; settings: salmonella enterica subsp. enterica serovar typhimurium
[11] = test system: Salmonella typhimurium; assay: Mutagenic activity in Salmonella Typhimurium TA97 assessed as number of his+ revertants at 1000 ug/plate after 48 to 72 hrs by Ames test in absence of S9 fraction; type: toxicity, organism-based; settings: salmonella enterica subsp. enterica serovar typhimurium
[12] = test system: Salmonella typhimurium; assay: Mutagenic activity in Salmonella Typhimurium TA102 assessed as number of his+ revertants at 1000 ug/plate after 48 to 72 hrs by Ames test in presence of S9 fraction; type: toxicity, organism-based; settings: salmonella enterica subsp. enterica serovar typhimurium
[13] = test system: Salmonella typhimurium; assay: Mutagenic activity in Salmonella Typhimurium TA97 assessed as number of his+ revertants at 100 ug/plate after 48 to 72 hrs by Ames test in absence of S9 fraction; type: toxicity, organism-based; settings: salmonella enterica subsp. enterica serovar typhimurium
[14] = test system: Salmonella typhimurium; assay: Cytotoxicity against Salmonella Typhimurium TA97 assessed as reduction in his+ revertants number at 500 ug/plate after 48 to 72 hrs in absence of S9 fraction; type: functional, Salmonella enterica subsp. enterica serovar Typhimurium; parameters: scale not given: the % may be the effect or the level left
[15] = test system: Salmonella typhimurium; assay: Cytotoxicity against Salmonella Typhimurium TA100 assessed as reduction in his+ revertants number at 500 ug/plate after 48 to 72 hrs in presence of S9 fraction; type: functional, Salmonella enterica subsp. enterica serovar Typhimurium; parameters: scale not given: the % may be the effect or the level left
[16] = test system: Salmonella typhimurium; assay: Cytotoxicity against Salmonella Typhimurium TA98 assessed as reduction in his+ revertants number at 500 ug/plate after 48 to 72 hrs in absence of S9 fraction; type: functional, Salmonella enterica subsp. enterica serovar Typhimurium; parameters: scale not given: the % may be the effect or the level left
[17] = test system: Salmonella typhimurium; assay: Cytotoxicity against Salmonella Typhimurium TA100 assessed as reduction in his+ revertants number at 500 ug/plate after 48 to 72 hrs in absence of S9 fraction; type: functional, Salmonella enterica subsp. enterica serovar Typhimurium; parameters: scale not given: the % may be the effect or the level left
[18] = test system: Salmonella typhimurium; assay: Mutagenic activity in Salmonella Typhimurium TA100 assessed as number of his+ revertants at 100 ug/plate after 48 to 72 hrs by Ames test in presence of S9 fraction; type: toxicity, organism-based; settings: salmonella enterica subsp. enterica serovar typhimurium
[19] = test system: Salmonella typhimurium; assay: Mutagenic activity in Salmonella Typhimurium TA98 assessed as number of his+ revertants at 100 ug/plate after 48 to 72 hrs by Ames test in presence of S9 fraction; type: toxicity, organism-based; settings: salmonella enterica subsp. enterica serovar typhimurium
[20] = test system: Salmonella typhimurium; assay: Mutagenic activity in Salmonella Typhimurium TA100 assessed as number of his+ revertants at 100 ug/plate after 48 to 72 hrs by Ames test in absence of S9 fraction; type: toxicity, organism-based; settings: salmonella enterica subsp. enterica serovar typhimurium
[21] = test system: Salmonella typhimurium; assay: Cytotoxicity against Salmonella Typhimurium TA97 assessed as reduction in his+ revertants number at 500 ug/plate after 48 to 72 hrs in presence of S9 fraction; type: functional, Salmonella enterica subsp. enterica serovar Typhimurium; parameters: scale not given: the % may be the effect or the level left
[22] = test system: Salmonella typhimurium; assay: Mutagenic activity in Salmonella Typhimurium TA98 assessed as number of his+ revertants at 500 ug/plate after 48 to 72 hrs by Ames test in absence of S9 fraction; type: toxicity, organism-based; settings: salmonella enterica subsp. enterica serovar typhimurium
[23] = test system: Salmonella typhimurium; assay: Cytotoxicity against Salmonella Typhimurium TA102 assessed as reduction in his+ revertants number at 500 ug/plate after 48 to 72 hrs in presence of S9 fraction; type: functional, Salmonella enterica subsp. enterica serovar Typhimurium; parameters: scale not given: the % may be the effect or the level left
[24] = test system: Salmonella typhimurium; assay: Mutagenic activity in Salmonella Typhimurium TA102 assessed as number of his+ revertants at 100 ug/plate after 48 to 72 hrs by Ames test in absence of S9 fraction; type: toxicity, organism-based; settings: salmonella enterica subsp. enterica serovar typhimurium
[25] = test system: Salmonella typhimurium; assay: Cytotoxicity against Salmonella Typhimurium TA102 assessed as reduction in his+ revertants number at 500 ug/plate after 48 to 72 hrs in absence of S9 fraction; type: functional, Salmonella enterica subsp. enterica serovar Typhimurium; parameters: scale not given: the % may be the effect or the level left
[26] = test system: Salmonella typhimurium; assay: Mutagenic activity in Salmonella Typhimurium TA98 assessed as number of his+ revertants at 1000 ug/plate after 48 to 72 hrs by Ames test in absence of S9 fraction; type: toxicity, organism-based; settings: salmonella enterica subsp. enterica serovar typhimurium
[27] = test system: Salmonella typhimurium; assay: Mutagenic activity in Salmonella Typhimurium TA97 assessed as number of his+ revertants at 500 ug/plate after 48 to 72 hrs by Ames test in absence of S9 fraction; type: toxicity, organism-based; settings: salmonella enterica subsp. enterica serovar typhimurium
[28] = test system: Salmonella typhimurium; assay: Mutagenic activity in Salmonella Typhimurium TA97 assessed as number of his+ revertants at 1000 ug/plate after 48 to 72 hrs by Ames test in presence of S9 fraction; type: toxicity, organism-based; settings: salmonella enterica subsp. enterica serovar typhimurium
[29] = test system: Salmonella typhimurium; assay: Mutagenic activity in Salmonella Typhimurium TA100 assessed as number of his+ revertants at 500 ug/plate after 48 to 72 hrs by Ames test in absence of S9 fraction; type: toxicity, organism-based; settings: salmonella enterica subsp. enterica serovar typhimurium
[30] = test system: Salmonella typhimurium; assay: Mutagenic activity in Salmonella Typhimurium TA98 assessed as number of his+ revertants at 100 ug/plate after 48 to 72 hrs by Ames test in absence of S9 fraction; type: toxicity, organism-based; settings: salmonella enterica subsp. enterica serovar typhimurium
[31] = test system: Salmonella typhimurium; assay: Mutagenic activity in Salmonella Typhimurium TA97 assessed as number of his+ revertants at 100 ug/plate after 48 to 72 hrs by Ames test in presence of S9 fraction; type: toxicity, organism-based; settings: salmonella enterica subsp. enterica serovar typhimurium
[32] = test system: Salmonella typhimurium; assay: Mutagenic activity in Salmonella Typhimurium TA100 assessed as number of his+ revertants at 1000 ug/plate after 48 to 72 hrs by Ames test in presence of S9 fraction; type: toxicity, organism-based; settings: salmonella enterica subsp. enterica serovar typhimurium
[33] = test system: Salmonella typhimurium; assay: Mutagenic activity in Salmonella Typhimurium TA98 assessed as number of his+ revertants at 500 ug/plate after 48 to 72 hrs by Ames test in presence of S9 fraction; type: toxicity, organism-based; settings: salmonella enterica subsp. enterica serovar typhimurium
[34] = test system: Salmonella typhimurium; assay: Cytotoxicity against Salmonella Typhimurium TA102 assessed as reduction in his+ revertants after 48 to 72 hrs in presence of S9 fraction; type: functional, Salmonella enterica subsp. enterica serovar Typhimurium; parameters: scale not given: the % may be the effect or the level left
[35] = test system: Salmonella typhimurium; assay: Cytotoxicity against Salmonella Typhimurium TA102 assessed as growth inhibition oh his+ revertants after 48 to 72 hrs; type: functional, Salmonella enterica subsp. enterica serovar Typhimurium; parameters: scale not given: the % may be the effect or the level left
[36] = test system: Salmonella typhimurium; assay: Cytotoxicity against Salmonella Typhimurium TA102 assessed as reduction in his+ revertants after 48 to 72 hrs in absence of S9 fraction; type: functional, Salmonella enterica subsp. enterica serovar Typhimurium; parameters: scale not given: the % may be the effect or the level left
[37] = test system: Salmonella typhimurium; assay: Cytotoxicity against Salmonella Typhimurium TA97 assessed as growth inhibition after 48 to 72 hrs; type: functional, Salmonella enterica subsp. enterica serovar Typhimurium; parameters: scale not given: the % may be the effect or the level left
[38] = test system: Salmonella typhimurium; assay: Cytotoxicity against Salmonella Typhimurium TA100 assessed as reduction in his+ revertants after 48 to 72 hrs in presence of S9 fraction; type: functional, Salmonella enterica subsp. enterica serovar Typhimurium; parameters: scale not given: the % may be the effect or the level left
[39] = test system: Salmonella typhimurium; assay: Cytotoxicity against Salmonella Typhimurium TA97 assessed as reduction in his+ revertants after 48 to 72 hrs in presence of S9 fraction; type: functional, Salmonella enterica subsp. enterica serovar Typhimurium; parameters: scale not given: the % may be the effect or the level left
[40] = test system: Salmonella typhimurium; assay: Cytotoxicity against Salmonella Typhimurium TA98 assessed as reduction in his+ revertants after 48 to 72 hrs in presence of S9 fraction; type: functional, Salmonella enterica subsp. enterica serovar Typhimurium; parameters: scale not given: the % may be the effect or the level left
[41] = test system: Salmonella typhimurium; assay: Cytotoxicity against Salmonella Typhimurium TA100 assessed as growth inhibition after 48 to 72 hrs; type: functional, Salmonella enterica subsp. enterica serovar Typhimurium; parameters: scale not given: the % may be the effect or the level left
[42] = test system: L929; assay: Genotoxicity against mouse L929 cells assessed as number of micronuclei at 50 ug/ml; type: toxicity, cell-based

Structure (SMILES) | Activity [1] | Activity [4] | Activity [5] | Activity [6] | Activity [7] | Activity [8] | Activity [9] | Activity [11] | Activity [12] | Activity [13] | Activity [18] | Activity [19] | Activity [20] | Activity [22] | Activity [24] | Activity [26] | Activity [27] | Activity [28] | Activity [29] | Activity [30] | other results
C/C=C/c1ccc(OC)c(OC)c1OC | 26 | 343 | 335 | 203 | 200 | 160 | 100 | 131 | 233 | 151 | 167 | 44 | 108 | 22 | 236 | 20 | 151 | 172 | 116 | 27 | Activity [2]: 9%; Activity [3]: 3.79%; Activity [10]: 160; Activity [14]: 23%; Activity [15]: 9%; Activity [16]: 23%; Activity [17]: 23%; Activity [21]: 9%; Activity [23]: 9%; Activity [25]: 23%; Activity [31]: 212; Activity [32]: 132; Activity [33]: 43
C/C=C/c1c(OC)ccc(OC)c1OC.CC(C)CCC[C@@H](C)[C@H]1CC[C@H]2[C@@H]3CC=C4C[C@@H](O)CC[C@]4(C)[C@H]3CC[C@]12C | 42 | 270 | 162 | 159 | 126 | 186 | 96 | 141 | 49 | 153 | 188 | 35 | 112 | 26 | 270 | 23 | 137 | 171 | 104 | 26 | Activity [34]: 46%; Activity [3]: 1.61%; Activity [35]: 28%; Activity [10]: 90; Activity [36]: 43%; Activity [31]: 191; Activity [32]: 162; Activity [33]: 27
C/C=C/c1cc(OC)c(OC)c(OC)c1 | 15 | 281 | 236 | 155 | 164 | 108 | 73 | 73 | 165 | 109 | 119 | 30 | 109 | 24 | 241 | 32 | 88 | 155 | 88 | 30 | Activity [34]: 22%; Activity [3]: 1.74%; Activity [37]: 59%; Activity [38]: 22%; Activity [39]: 22%; Activity [40]: 22%; Activity [31]: 194; Activity [41]: 44%; Activity [32]: 87; Activity [33]: 18
C/C=C/c1c(OC)cc(OC)cc1OC | 22 | 333 | 328 | 298 | 200 | 156 | 148 | 223 | 218 | 163 | 153 | 24 | 138 | 32 | 275 | 26 | 190 | 187 | 134 | 32 | Activity [34]: 27%; Activity [35]: 28%; Activity [10]: 195; Activity [36]: 28%; Activity [42]: 3.44%; Activity [31]: 175; Activity [32]: 126; Activity [33]: 18
